Measured values published in US20240261465A1, “METHOD OF STOPPING BLEEDING USING NANOFIBROUS PEPTIDE HYDROGELS AS HEMOSTASIS AGENT” (KING ABDULLAH UNIVERSITY OF SCIENCE AND TECHNOLOGY, priority 2021, published 2024).
Non-standard residues stand in square brackets, D forms with d. No end group written: not given here. Cha = N[C@@H](CC1CCCCC1)C(=O)O

How the values were obtained:
[1] = Determination of gelation time by coagulation meter; type: physicochemical; conditions: for gelation time, effect of temperature: 37° C. versus 25° C., FIGS. 1 and 2; for onset of gelation: different temperatures, different concentrations, FIGS. 3 and 4
Experimental: In one embodiment, the nanofiber formation of the self-assembling peptides is affected by concentration of the peptide solution (Luo, Z., S. Wang, and S. Zhang, Fabrication of self-assembling D-form peptide nanofiber scaffold d-EAK16 for rapid hemostasis. Biomaterials, 2011. 32(8): p. 2013-2020). The gelation time of different peptides at various concentrations was recorded using a coagulation meter. FIGS. 1 and 2 illustrate the gelation time of two peptides with different concentrations at two different temperatures (25° C., 37° C.). As shown in both FIGS. 1 and 2, as the concentration of peptide increases, the required time for gelation decreases.
In one embodiment, the peptide gelation is impacted by temperature. […] This effect can be explained by the increasing of kinetic energy which is helps in bond formation within molecules enabling the peptide solution to form gels faster at 37° C. than at 25° C.
In one embodiment, the gelation time is impacted by temperature.
In this study, onset of gelation was assessed using coagulation meter MC 10 PLUS (MERLIN® Medical, Germany). The peptide solution at different concentrations was used and checked under various conditions. For the coagulation experiment, 300 μl of peptide solution was added into a tube and placed in the preheated position for 50 seconds before adding 30 μl of PBS. The time at which the gel formed was then recorded. The temperature was chosen in advance and all solutions were incubated at the desired temperature before conducting the measurements.

plasma = experiment: Blood coagulation test (aPTT), normal plasma; conditions: peptide solution mixed with plasma, 37° C., control without peptides around 40 seconds
Experimental: In one embodiment, an application of the peptide-based hemostatic material in the present disclosure to the bleeding wound produces a coagulation time of less than 40 seconds. The coagulation time of normal plasma (without self-assembling peptides) and plasma with IVZK (SEQ ID NO. 2) or IVFK (SEQ ID NO. 1) hydrogels as initiators for clot formation was compared using a partial thromboplastin time (aPTT) test. The hemostatic properties of the peptides were evaluated by measuring the coagulation time after mixing the peptide solution with plasma. […] The coagulation time of the control (without self-assembling peptides) was around 40 seconds, which is within the normal range.
The aPTT test was performed in a coagulation meter MC 10 PLUS (MERLIN® Medical, Germany). First, 100 μL of plasma was incubated at 37° C., followed by adding 100 μL of a-PTT reagent. Then, the plasma-reagent mixture was incubated at 37° C. for 5 minutes (activation time). Finally, 100 μL of pre-warmed […] calcium chloride was added and time clot formation was recorded. In experimental group, 150 μL of plasma was pre-warmed and then 150 μL of peptide solution was added and the time was recorded. Each test was conducted at least three times.

Human platelets = experiment: Surface coating and platelet adhesion; type: cell-based; conditions: fluorescence microscopy images, FIG. 23; for platelet adhesion: coated surface
Excerpt: In one embodiment, the self-assembling peptides induce platelet adhenrance. In a preferred embodiment, the self-assembling peptides induce more platelet adhenrance than collagen. One important factor for accelerating blood coagulation could be by promoting the recruitment and adherence of platelets to the site of injury as these processes play a critical role in primary hemostasis (O'Shaughnessy, D. and R. Gill, 19 Cardiothoracic surgery. Practical Hemostasis and Thrombosis, 2009: p. 194). Therefore, platelet adherence induced by peptide hydrogels, type I collagen (positive control), and bovine serum albumin (BSA) (negative comtrol) was tested and compared. […] The scale bar in FIG. 23 is 100 μm. […] The level of platelet adhesion induced by peptide hydrogels, type I collagen (positive control) was also quantified, as shown in FIG. 24. According to FIG. 24, the level of platelet adhesion induced by peptide hydrogels is even higher than that of collagen. […] Therefore, our peptides induced platelet adhesion, a process that may help trigger the coagulation system.
The procedure was done as described previously (Chen, C., et al., Hydrogelation of the short self-assembling peptide 13QGK regulated by transglutaminase and use for rapid hemostasis. ACS applied materials & interfaces, 2016. 8(28): p. 17833-17841). Briefly, for surface coating. 200 μL of 6 mM IVFK (SEQ ID NO. 1), 6 mM IVZK (SEQ ID NO. 2), 0.5% (w/v), BSA (PBS, pH 7.4), and 0.01 mg/mL type I collagen (PBS, pH 7.4) solutions were added to the wells of a 96-well black plate and incubated at 4° C. for 24 h. The wells were washed three times with PBS after removing these solutions. Human platelets were isolated from whole human blood containing anticoagulant sodium citrate (0.38%, w/v) as described previously(Chen, C., et al., Hydrogelation of the short self-assembling peptide 13QGK regulated by transglutaminase and use for rapid hemostasis. ACS applied materials & interfaces, 2016. 8(28): p. 17833-17841). The blood collection was approved by IBEC (18IBEC143). Briefly, platelet-rich plasma (PRP) was collected by centrifugation at 200×g for 20 min at 25° C. Then, PRP was diluted at a 1:1 ratio with PBS and subjected to second centrifugation at 800×g for 12 min at 25° C. The isolated platelets were washed three times with Tyrode's buffer (Hepes 20 mM, glucose […], BSA 1 mg/mL, NaH2PO4 3.3 mM, NaCl 137 mM, KCl 2.7 mM), followed by staining with calcein-AM (1 μg/mL) for 30 min in the dark at room temperature to stained platelets. After washing twice with PBS, the stained platelets were added into the coated wells and incubated for 1 h at 37° C. Subsequently, the supernatants were removed, and the unbound platelets were discarded by washing three times with PBS. The fluorescence of adherent platelets was measured by fluorescence microscopy.

Substance	gelation time, effect of temperature [1]	onset of gelation [1]	coagulation (clotting) time (plasma)	platelet adhesion (Human platelets)	level of platelet adhesion relative to collagen (positive control) (Human platelets)
IVFK: tetrameric self-assembling ultrashort peptide IVFK (SEQ ID NO. 1), forms nanofibrous hydrogel	faster gelation at 37 °C	occurs faster with the increase of temperature	around 5 seconds	considerable platelet adhesion	comparable to that on the surface of collagen
IVZK: tetrameric self-assembling ultrashort peptide IVZK (SEQ ID NO. 2), forms nanofibrous hydrogel (IV[Cha]K)	faster gelation at 37 °C	occurs faster with the increase of temperature	around 5 seconds	considerable platelet adhesion	comparable to that on the surface of collagen
bovine serum albumin [BSA, reference compound]				little platelet adhesion	
